From PubChem BioAssay (NCI)
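Assay format: 96-well plates, 48-hour exposure. At the TGI there is no net growth.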

Assays:
Experiment in all cases: growth of human tumour cells (NCI), 48 h
A498 renal = tested on: A498 renal
IGROV1 ovarian = tested on: IGROV1 ovarian
HT29 colon = tested on: HT29 colon
DU-145 prostate = tested on: DU-145 prostate
MDA-MB-231 breast = tested on: MDA-MB-231 breast
CAKI-1 renal = tested on: CAKI-1 renal
U251 CNS = tested on: U251 CNS
NCI/ADR-RES ovarian = tested on: NCI/ADR-RES ovarian
A549 NSCLC = tested on: A549 NSCLC
UO-31 renal = tested on: UO-31 renal
HS 578T breast = tested on: HS 578T breast
SF-539 CNS = tested on: SF-539 CNS
SF-295 CNS = tested on: SF-295 CNS
COLO 205 colon = tested on: COLO 205 colon
MALME-3M melanoma = tested on: MALME-3M melanoma
RXF 393 renal = tested on: RXF 393 renal
LOX IMVI melanoma = tested on: LOX IMVI melanoma
MCF7 breast = tested on: MCF7 breast
SK-MEL-28 melanoma = tested on: SK-MEL-28 melanoma
EKVX NSCLC = tested on: EKVX NSCLC
OVCAR-8 ovarian = tested on: OVCAR-8 ovarian
OVCAR-5 ovarian = tested on: OVCAR-5 ovarian
HOP-92 NSCLC = tested on: HOP-92 NSCLC
NCI-H226 lung = tested on: NCI-H226 lung
BT-549 breast = tested on: BT-549 breast
NCI-H23 lung = tested on: NCI-H23 lung
HCT-15 colon = tested on: HCT-15 colon
MDA-N = tested on: MDA-N
T-47D breast = tested on: T-47D breast
CCRF-CEM leukemia = tested on: CCRF-CEM leukemia
M14 melanoma = tested on: M14 melanoma
SK-MEL-5 melanoma = tested on: SK-MEL-5 melanoma
MOLT-4 leukemia = tested on: MOLT-4 leukemia
K-562 leukemia = tested on: K-562 leukemia
KM12 colon = tested on: KM12 colon
SNB-19 CNS = tested on: SNB-19 CNS
HCT-116 colon = tested on: HCT-116 colon
SR leukemia = tested on: SR leukemia
UACC-62 melanoma = tested on: UACC-62 melanoma
NCI-H460 lung = tested on: NCI-H460 lung
HOP-62 NSCLC = tested on: HOP-62 NSCLC
RPMI-8226 leukemia = tested on: RPMI-8226 leukemia
ACHN renal = tested on: ACHN renal
SN12C renal = tested on: SN12C renal
HL-60(TB) leukemia = tested on: HL-60(TB) leukemia
PC-3 prostate = tested on: PC-3 prostate
SK-MEL-2 melanoma = tested on: SK-MEL-2 melanoma
OVCAR-4 ovarian = tested on: OVCAR-4 ovarian
786-0 renal = tested on: 786-0 renal
SK-OV-3 ovarian = tested on: SK-OV-3 ovarian
TK-10 renal = tested on: TK-10 renal
SW-620 colon = tested on: SW-620 colon
OVCAR-3 ovarian = tested on: OVCAR-3 ovarian
UACC-257 melanoma = tested on: UACC-257 melanoma
MDA-MB-435 = tested on: MDA-MB-435
SNB-75 CNS = tested on: SNB-75 CNS
NCI-H522 lung = tested on: NCI-H522 lung
SF-268 CNS = tested on: SF-268 CNS

Measured: TGI

NC(CSC1c2ccccc2-c2ccccc21)C(=O)O (configuration not stated)
not listed: NCI-H522 lung | SF-268 CNS
> 100 µM: all other assays above

CCc1nn(CN2CCOCC2)c(=S)n1/N=C/c1ccc(-c2ccc(Cl)cc2)o1
not listed: COLO 205 colon | MALME-3M melanoma | CCRF-CEM leukemia | SNB-19 CNS | UACC-62 melanoma | SN12C renal | SK-OV-3 ovarian
> 100 µM: all other assays above
